Results on 12 compounds are retold here after patent US5332726A, “Antithrombotic peptides and pseudopeptides” (Rhone-Poulenc Rorer Pharmaceuticals Inc., priority 1992, dated 1994).

Assay [1] deals with platelet aggregation. The settings on record: cited from earlier work.
Assay [2] has as its target thrombin-stimulated platelets (Homo sapiens, UniProt P05106+P08514). Nature of the assay: Fibrinogen-Binding Assay (125I-fibrinogen binding to platelets). The settings on record: 125I-fibrinogen 0.176 μmol/liter, thrombin-stimulated platelets; read-out: Inhibition of 125I-Fibrinogen Binding to Platelets IC50.
The target of assay [3] is fixed activated platelets (Homo sapiens, UniProt P05106+P08514). Kind of assay: Platelet Aggregation Assay (fibrinogen-mediated aggregation of fixed-activated platelets). The settings on record: for inhibition at 25 µM: read-out: Inhibition of Fibrinogen Mediated Platelet Aggregation % inhibition at 25 μM; for IC50: fixed activated platelets, human fibrinogen 250 μg/ml, read-out: Inhibition of Fibrinogen Mediated Platelet Aggregation IC50. The assay is classed as cell-based. Put shortly:
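Activated platelets fixed with 0.50% paraformaldehyde for 30 min at room temperature. They were then pre-incubated 1 min with test compound before aggregation was triggered by human fibrinogen at 250 μg/ml final. Aggregation recorded on an aggregometer.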

As usually defined, the IC50 is the concentration at which inhibition is half-maximal. One may read the inhibition as the relative decrease from the control value, in per cent.

Non-standard residues stand in square brackets, D forms with d. Residues, ends and D or L forms follow the SMILES beside them. Aun = NCCCCCCCCCCC(=O)O

Sequence of thrombin-stimulated platelets (P08514 32-1039): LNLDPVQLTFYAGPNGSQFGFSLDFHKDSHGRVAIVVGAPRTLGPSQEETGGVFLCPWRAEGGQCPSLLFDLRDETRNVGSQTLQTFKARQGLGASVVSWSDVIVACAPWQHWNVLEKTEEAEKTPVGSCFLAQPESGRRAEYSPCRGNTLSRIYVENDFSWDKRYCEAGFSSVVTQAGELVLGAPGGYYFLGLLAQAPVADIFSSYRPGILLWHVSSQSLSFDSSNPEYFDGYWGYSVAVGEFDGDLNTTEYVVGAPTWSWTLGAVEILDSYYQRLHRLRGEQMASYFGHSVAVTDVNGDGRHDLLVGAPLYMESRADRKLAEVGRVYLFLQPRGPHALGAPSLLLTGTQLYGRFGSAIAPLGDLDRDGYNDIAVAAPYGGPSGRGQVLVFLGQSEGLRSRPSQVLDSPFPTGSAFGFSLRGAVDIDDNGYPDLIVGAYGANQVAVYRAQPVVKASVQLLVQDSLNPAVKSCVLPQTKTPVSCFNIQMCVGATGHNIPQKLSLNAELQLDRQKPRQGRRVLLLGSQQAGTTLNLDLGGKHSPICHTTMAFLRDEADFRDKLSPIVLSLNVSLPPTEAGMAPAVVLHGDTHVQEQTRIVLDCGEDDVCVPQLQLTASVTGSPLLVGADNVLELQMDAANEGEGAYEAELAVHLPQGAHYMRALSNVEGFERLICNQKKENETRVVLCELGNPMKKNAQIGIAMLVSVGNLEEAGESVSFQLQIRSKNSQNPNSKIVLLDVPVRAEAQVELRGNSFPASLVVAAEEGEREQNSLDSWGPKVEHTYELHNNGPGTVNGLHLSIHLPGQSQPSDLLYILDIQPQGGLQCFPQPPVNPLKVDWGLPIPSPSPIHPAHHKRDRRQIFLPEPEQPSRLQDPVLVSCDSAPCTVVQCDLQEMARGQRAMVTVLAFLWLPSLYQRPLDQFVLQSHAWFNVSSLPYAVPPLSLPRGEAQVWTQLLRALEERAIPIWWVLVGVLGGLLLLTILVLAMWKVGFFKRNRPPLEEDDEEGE
Sequence of thrombin-stimulated platelets (P05106 27-788): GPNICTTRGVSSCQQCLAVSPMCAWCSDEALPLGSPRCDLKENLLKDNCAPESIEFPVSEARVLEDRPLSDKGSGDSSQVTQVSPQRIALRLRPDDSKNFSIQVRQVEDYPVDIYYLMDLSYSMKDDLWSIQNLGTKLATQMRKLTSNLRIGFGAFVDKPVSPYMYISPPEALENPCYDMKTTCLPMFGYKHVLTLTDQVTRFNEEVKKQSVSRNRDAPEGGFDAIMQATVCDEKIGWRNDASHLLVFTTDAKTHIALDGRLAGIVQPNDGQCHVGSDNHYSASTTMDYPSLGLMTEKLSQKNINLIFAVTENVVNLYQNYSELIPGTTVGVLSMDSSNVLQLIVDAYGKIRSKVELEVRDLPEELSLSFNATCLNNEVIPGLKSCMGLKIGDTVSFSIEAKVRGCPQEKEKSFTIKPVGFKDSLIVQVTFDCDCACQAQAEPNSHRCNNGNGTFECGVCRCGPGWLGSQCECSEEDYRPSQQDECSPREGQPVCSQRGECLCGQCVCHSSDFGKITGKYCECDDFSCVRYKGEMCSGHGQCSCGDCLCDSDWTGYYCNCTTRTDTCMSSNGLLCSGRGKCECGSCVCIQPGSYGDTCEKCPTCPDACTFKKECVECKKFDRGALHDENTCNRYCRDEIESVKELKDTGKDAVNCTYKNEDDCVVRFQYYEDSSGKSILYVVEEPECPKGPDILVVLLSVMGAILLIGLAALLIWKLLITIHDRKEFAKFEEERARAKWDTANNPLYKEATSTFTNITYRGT
Sequence of fixed activated platelets (P08514 32-1039): as the sequence (P08514 32-1039) above
Sequence of fixed activated platelets (P05106 27-788): as the sequence (P05106 27-788) above

On to arg-gly-asp-ser, for which, in assay [1], the “inhibiting thrombin-induced platelet aggregation” value is “capable of inhibiting thrombin-induced platelet aggregation”.

Consider gly-arg-gly-asp-ser, for which the “inhibiting thrombin-induced platelet aggregation” value in assay [1] is “capable of inhibiting thrombin-induced platelet aggregation”.

In the case of `CC(C)[C@H](NC(=O)[C@H](CC(=O)O)NC(=O)CCCCCCCCCCCNC(=N)N)C(=O)O` [12-Guanidinododecanoyl-L-aspartyl-L-valine], in assay [2], the IC50 came out at 7000 nM. Moreover, in assay [3], the inhibition at 25 µM was determined as 36%.

Consider `CC(C)[C@H](NC(=O)[C@H](CC(=O)O)NC(=O)CN(C(=O)CCCCCNC(=N)N)C1CCCC1)C(=O)O` [6-Guanidinohexanoyl-N-cyclopentylglycine-L-aspartyl-L-valine], for which the IC50 in assay [2] was 880 nM; in assay [3], 5700 nM. Further, the inhibition at 25 µM in assay [3] stood at 76%.

Turning to `CN(CC(=O)N[C@@H](CC(=O)O)C(=O)N[C@@H](Cc1c[nH]c2ccccc12)C(=O)O)C(=O)CCCCCNC(=N)N` [6-Guanidinohexanoyl-sarcosyl-L-aspartyl-L-tryptophan], the results for the IC50 in assay [2] and in assay [3] were 190 nM and 6600 nM, respectively. Besides, the inhibition at 25 µM in assay [3] came out at 89%.

With `N=C(N)NCCCCCCCCC(=O)N[C@@H](CC(=O)O)C(=O)NCCC(=O)N[C@@H](CCCNC(=N)N)C(=O)O` [9-Guanidinononanoyl-L-aspartyl-β-alanyl-L-arginine], the IC50 in assay [2] was 640 nM. Further, in assay [3], the IC50 amounted to 1500 nM and the inhibition at 25 µM came to 93%.

In the case of `CCN(CC(=O)N[C@@H](CC(=O)O)C(=O)N[C@@H](Cc1ccccc1)C(=O)O)C(=O)CCCCCNC(=N)N` [6-Guanidinohexanoyl-N-ethylglycyl-L-aspartyl-L-phenylalanine], the IC50 in assay [2] came out at 200 nM. Also, in assay [3], the IC50 was 1300 nM and the inhibition at 25 µM worked out at 97%.

With `CCN(CC(=O)N[C@@H](CC(=O)O)C(=O)N[C@@H](CCCNC(=N)N)C(=O)O)C(=O)CCCCNC(=N)N` [5-guanidino-N-(ethyl)-glycyl-L-aspartyl-L-arginine], in assay [2], the concentration for half-maximal inhibition (IC50) turned out to be 1900 nM. In addition, in assay [3], the IC50 is 230 nM and the inhibition at 25 µM was 93%.

`CC(C)[C@H](NC(=O)[C@H](CC(=O)O)NC(=O)CCCCCCCCCCN)C(=O)O` [11-Aminoundecanoyl-L-aspartyl-L-valine] (H-[Aun]-Asp-Val-OH): the IC50 in assay [2] worked out at 580 nM; in assay [3], 1700 nM. Moreover, the inhibition at 25 µM in assay [3] came out at 0.98%.

With `N=C(N)NCCCCCCCCC(=O)N[C@@H](CC(=O)O)C(=O)NCC(=O)N[C@@H](CCCNC(=N)N)C(=O)O` [9-Guanidinononanoyl-L-aspartyl-glycyl-L-arginine], the figures for the IC50 in assay [2] and in assay [3] were 7000 nM and 2200 nM, respectively. Also, in assay [3], the inhibition at 25 µM was found to be 85%.

`CC(C)[C@H](NC(=O)[C@H](CC(=O)O)NC(=O)CNC(=O)CCCCNC(=N)N)C(=O)O` [N-(5-guanidinopentanoyl)glycyl-L-aspartyl-L-valine]: the IC50 in assay [2] was 700 nM; in assay [3] it was 2300 nM. For the same compound, the inhibition at 100 µM in assay [3] (read-out: Inhibition of Fibrinogen Mediated Platelet Aggregation % inhibition at 100 μM) is 92%.

For `N=C(N)NCCCCCCCCC(=O)N[C@@H](CC(=O)O)C(=O)N[C@@H](CCCNC(=N)N)C(=O)N[C@@H](CCCNC(=N)N)C(=O)O` [9-Guanidinononanoyl-L-aspartyl-L-arginyl-L-arginine], in assay [2], the IC50 amounted to 15000 nM. In addition, in assay [3], the IC50 was 15000 nM and the inhibition at 25 µM came to 68%.
